Assay results as given in publication PMC5078989, “Targeted inhibition of the COP9 signalosome for treatment of cancer” (Nature Communications, 2016).

Test system: panel of cancer cell lines
Assay: Cell viability (CellTiter-Glo) dose-response across cancer cell line panel;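 on EC50: after 72 h compound incubation with CellTiter-Glo ATP readout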
Assay type: cell-based, human
Details: for EC50: Homo sapiens
Source text: Next, we explored the effect of CSN5 inhibition on the viability of cancer cells. To obtain a comprehensive picture, we generated dose–response curves with a CSN5 inhibitor across more than 500 cancer cell lines in a previously described standardized setting[47] (Supplementary Data 1).
A standardized CellTiter-Glo Assay (Promega #G7570) based on the quantification of ATP was applied according to the manufacturer's protocol to measure the amount of viable cells in culture. In brief, cells were seeded into 384-well plates at optimal density for each cell line. After 4 h, compounds were added at different concentrations in growth medium and incubated for another 72 h in a humidifying chamber at 37 °C and 5% CO2. […] EC50 values were calculated from the plot of percentage of inhibition versus inhibitor concentration using the nonlinear regression analysis software Origin 7.5SR6 (OriginLab Corp.).

Q: For `CC(C)C[C@H](NC(=O)[C@H](Cc1ccccc1)NC(=O)c1cnccn1)B(O)O` [Bortezomib], which EC50 (SR-786, SR-786) is on record?
A: 2.21 nM

Q: What about the EC50 (ST486, ST486) of the same compound?
A: 6.31 nM

Q: What about the EC50 (SU-DHL10, SU-DHL-10) of the same compound?
A: 14.5 nM

Q: And the EC50 (SU-DHL-4, SU-DHL-4)?
A: 3.28 nM

Q: And the EC50 (SU-DHL-8, SU-DHL-8)?
A: 3.8 nM

Q: And the EC50 (SUM52, cell line SUM-52)?
A: 5.48 nM

Q: And the EC50 (SUM52PE)?
A: 6.21 nM

Q: And the EC50 (SUP-M2, SUP-M2)?
A: 3.28 nM

Q: And the EC50 (SW480, SW480)?
A: 7.08 nM

Q: What about the EC50 (SW837, SW837) of the same compound?
A: 5.87 nM

Q: What about the EC50 (SW948, SW948) of the same compound?
A: 7.28 nM

Q: And the EC50 (SW1088, SW 1088)?
A: 5.94 nM

Q: What about the EC50 (SW1271, cell line SW 1271) of the same compound?
A: 21.5 nM

Q: And the EC50 (SW1353, SW 1353)?
A: 39.3 nM

Q: And the EC50 (SW1417, SW1417)?
A: 6.52 nM

Q: What about the EC50 (SW1573, SW 1573) of the same compound?
A: 20.5 nM

Q: What about the EC50 (SW1783, SW 1783) of the same compound?
A: 16.4 nM

Q: What about the EC50 (SW1990, SW 1990) of the same compound?
A: 8.71 nM

Q: And the EC50 (SW-620, SW620)?
A: 7.95 nM

Q: And the EC50 (T47D, T-47D)?
A: 10.4 nM

Q: What about the EC50 (T84, T84) of the same compound?
A: 12.1 nM

Q: And the EC50 (T98G)?
A: 9.62 nM

Q: And the EC50 (T-24, T24)?
A: 9.77 nM

Q: And the EC50 (TC-71, TC-71)?
A: 11.4 nM

Q: What about the EC50 (TE-4) of the same compound?
A: 5.89 nM

Q: And the EC50 (TE-6, TE-6)?
A: 43.9 nM

Q: What about the EC50 (TE-10, TE-10) of the same compound?
A: 11.2 nM

Q: And the EC50 (TE-11, cell line TE-11)?
A: 28.9 nM

Q: What about the EC50 (TE-15, cell line TE-15) of the same compound?
A: 16.7 nM

Q: What about the EC50 (TEN) of the same compound?
A: 9.94 nM

Q: What about the EC50 (TF-1, TF-1) of the same compound?
A: 1.67 nM

Q: What about the EC50 (THP-1, THP-1) of the same compound?
A: 6.6 nM

Q: What about the EC50 (TOV21G, cell line TOV-21G) of the same compound?
A: 4.25 nM

Q: And the EC50 (TOV112D, TOV-112D)?
A: 28.7 nM

Q: And the EC50 (TT2609-C02)?
A: 19.3 nM

Q: And the EC50 (U266B1)?
A: 3.37 nM

Q: And the EC50 (U-118-MG, U-118 MG)?
A: 7.81 nM

Q: What about the EC50 (U-251, U-251 MG) of the same compound?
A: 6.91 nM

Q: And the EC50 (U-937, U-937)?
A: 5.81 nM

Q: What about the EC50 (UACC-62, UACC-62) of the same compound?
A: 19.5 nM

Q: And the EC50 (UACC-257, UACC-257)?
A: 10.9 nM

Q: What about the EC50 (UMUC3, UM-UC-3) of the same compound?
A: 15.1 nM

Q: What about the EC50 (VM-CUB-1, VM-CUB1) of the same compound?
A: 10.1 nM

Q: And the EC50 (VMRC-RCW)?
A: 5.3 nM

Q: And the EC50 (WM 266-4, WM-266-4)?
A: 24.4 nM

Q: And the EC50 (WM793, WM-793)?
A: 15.5 nM

Q: What about the EC50 (WM983B, WM-983B) of the same compound?
A: 8.77 nM

Q: What about the EC50 (WM-88) of the same compound?
A: 7.78 nM

Q: And the EC50 (WM-115, WM-115)?
A: 6.28 nM

Q: What about the EC50 (WM-1799, WM1799) of the same compound?
A: 7.42 nM

Q: What about the EC50 (WSUDLCL2, WSU-DLCL2) of the same compound?
A: 4.13 nM

Q: And the EC50 (YAPC)?
A: 22.7 nM

Q: And the EC50 (YKG-1, YKG1)?
A: 7.27 nM

Q: And the EC50 (YMB-1)?
A: 16.2 nM

Q: What about the EC50 (Z-138, cell line Z-138) of the same compound?
A: 5.73 nM

Q: And the EC50 (ZR-75-1, ZR-75-1)?
A: 21.1 nM

Q: What about the EC50 (ZR-75-30, ZR-75-30) of the same compound?
A: 10.2 nM

Q: And the EC50 (cell line AGS)?
A: 9.36 nM

Q: And the EC50 (cell line BDCM)?
A: 7.98 nM

Q: What about the EC50 (cell line EB1) of the same compound?
A: 6.47 nM

Q: What about the EC50 (cell line EB2) of the same compound?
A: 6.46 nM

Q: And the EC50 (cell line GCT)?
A: 19 nM

Q: And the EC50 (cell line GI-1)?
A: 8.94 nM

Q: What about the EC50 (cell line H4) of the same compound?
A: 11.5 nM

Q: And the EC50 (cell line HH)?
A: 3.05 nM

Q: What about the EC50 (cell line HuG1-N) of the same compound?
A: 1.83 nM

Q: What about the EC50 (cell line JHH-5) of the same compound?
A: 17 nM

Q: What about the EC50 (cell line KS-1) of the same compound?
A: 10.1 nM

Q: What about the EC50 (cell line KURAMOCHI) of the same compound?
A: 30.9 nM

Q: And the EC50 (cell line LC-1/sq-SF)?
A: 18.8 nM

Q: What about the EC50 (cell line LP-6) of the same compound?
A: 10.3 nM

Q: What about the EC50 (cell line MEL-HO) of the same compound?
A: 5.3 nM

Q: And the EC50 (cell line MJ)?
A: 2.8 nM

Q: What about the EC50 (cell line MOG-G-UVW) of the same compound?
A: 19.9 nM

Q: And the EC50 (cell line Mel285)?
A: 8.2 nM

Q: What about the EC50 (cell line NCI-H2330) of the same compound?
A: 32.2 nM

Q: And the EC50 (cell line OMM2.3)?
A: 12.1 nM

Q: What about the EC50 (cell line OMM2.5) of the same compound?
A: 21.7 nM

Q: And the EC50 (cell line PC-3)?
A: 14.3 nM

Q: And the EC50 (cell line RERF-LC-MS)?
A: 41.7 nM

Q: What about the EC50 (cell line RKO) of the same compound?
A: 8.53 nM

Q: And the EC50 (cell line RL)?
A: 3.25 nM

Q: And the EC50 (cell line T778)?
A: 18.6 nM

Q: What about the EC50 (cell line TE 617.T) of the same compound?
A: 6.87 nM

Q: What about the EC50 (cell line TE-1) of the same compound?
A: 15.6 nM

Q: What about the EC50 (cell line TE-5) of the same compound?
A: 7.97 nM

Q: And the EC50 (cell line VMRC-RCZ)?
A: 8.46 nM

Q: What about the EC50 (cell line WS1) of the same compound?
A: 17.6 nM

Q: What about the AMAX (Hs 611.T) of the same compound?
A: -95.5359

Q: And the AMAX (Hs 729)?
A: -96.5684

Q: What about the AMAX (Hs 936.T) of the same compound?
A: -95.7878

Q: And the AMAX (Hs 940.T)?
A: -97.1382

Q: And the AMAX (IGR-1)?
A: -97.3166

Q: What about the AMAX (JHOM-1) of the same compound?
A: -95.2005

Q: What about the AMAX (JVM-3) of the same compound?
A: -96.4391

Q: And the AMAX (KARPAS-620)?
A: -98.4285

Q: What about the AMAX (KCL-22) of the same compound?
A: -97.2427

Q: What about the AMAX (KHM-1B) of the same compound?
A: -96.7668

Q: And the AMAX (KLE)?
A: -91.799

Q: What about the AMAX (KMS-28BM) of the same compound?
A: -96.7467

Q: And the AMAX (KO52)?
A: -96.777

Q: And the AMAX (KU812)?
A: -97.0553

Q: And the AMAX (KYM-1)?
A: -96.8984

Q: And the AMAX (KYO-1)?
A: -96.2465

Q: And the AMAX (Ki-JK)?
A: -96.7338

Q: And the AMAX (L-363)?
A: -96.7867

Q: And the AMAX (LAMA-84)?
A: -97.7452

Q: And the AMAX (LCLC-97TM1)?
A: -96.2648

Q: What about the AMAX (LCLC-103H) of the same compound?
A: -95.0382

Q: What about the AMAX (LMSU) of the same compound?
A: -95.8427

Q: And the AMAX (LU99)?
A: -96.2849

Q: And the AMAX (LXF-289)?
A: -97.2241

Q: What about the AMAX (Li-7) of the same compound?
A: -96.9283

Q: And the AMAX (MB 157)?
A: -95.9545

Q: What about the AMAX (MHH-NB-11) of the same compound?
A: -96.8993

Q: And the AMAX (MOLM-16)?
A: -96.6028

Q: What about the AMAX (MOLP-8) of the same compound?
A: -96.4824

Q: What about the AMAX (MONO-MAC-1) of the same compound?
A: -98.0152

Q: And the AMAX (MONO-MAC-6)?
A: -96.8971

Q: What about the AMAX (NCI-H28) of the same compound?
A: -96.1421

Q: And the AMAX (NCI-H841)?
A: -95.8407

Q: And the AMAX (NCI-H1184)?
A: -95.7721

Q: And the AMAX (NCI-H1341)?
A: -97.2357

Q: And the AMAX (NCI-H1869)?
A: -96.9482

Q: What about the AMAX (NCI-H2073) of the same compound?
A: -96.9774

Q: And the AMAX (NOMO-1)?
A: -95.3675

Q: And the AMAX (OC 316)?
A: -96.5256

Q: What about the AMAX (OCI-AML2) of the same compound?
A: -96.7921

Q: And the AMAX (OCI-AML3)?
A: -95.7952

Q: What about the AMAX (OCI-AML5) of the same compound?
A: -97.923

Q: And the AMAX (OCI-M1)?
A: -95.2925

Q: And the AMAX (ONCO-DG-1)?
A: -96.4992

Q: What about the AMAX (OS-RC-2) of the same compound?
A: -96.3701

Q: And the AMAX (OUMS-23)?
A: -95.8674

Q: And the AMAX (OV7)?
A: -92.7444

Q: And the AMAX (P31/FUJ)?
A: -96.7178

Q: And the AMAX (PA-TU-8988S)?
A: -97.262

Q: What about the AMAX (PE/CA-PJ41 (clone D2)) of the same compound?
A: -95.4895

Q: What about the AMAX (RI-1) of the same compound?
A: -96.2187

Q: What about the AMAX (RMUG-S) of the same compound?
A: -96.7615

Q: What about the AMAX (RVH-421) of the same compound?
A: -95.9743

Q: And the AMAX (SF126)?
A: -95.9565

Q: And the AMAX (SK-N-SH)?
A: -96.5195

Q: And the AMAX (SNU-216)?
A: -96.337

Q: What about the AMAX (SW620) of the same compound?
A: -96.6127

Q: What about the AMAX (SW837) of the same compound?
A: -95.7546

Q: And the AMAX (SW948)?
A: -95.7047

Q: What about the AMAX (SW 1783) of the same compound?
A: -94.9618

Q: And the AMAX (T84)?
A: -98.3103

Q: What about the AMAX (T98G) of the same compound?
A: -96.5841

Q: And the AMAX (T-47D)?
A: -97.6577

Q: And the AMAX (THP-1)?
A: -96.3023

Q: And the AMAX (U-118 MG)?
A: -95.817

Q: What about the AMAX (UACC-257) of the same compound?
A: -95.0265

Q: What about the AMAX (VMRC-RCW) of the same compound?
A: -96.9199

Q: What about the AMAX (YMB-1) of the same compound?
A: -91.0668

Q: What about the “Amax (high-concentration effect level)” value (across all cell lines of the panel, 72 h) of the same compound?
A: −95% to −100

Q: What about the AMAX (all cell lines of a selection from the panel (Fig. 3b)) of the same compound?
A: ≤ −95%
